According to ChEMBL document CHEMBL5223138, “Lead identification of novel tetrahydroimidazo[1,2-a]pyridine-5-carboxylic acid derivative as a potent heparanase-1 inhibitor” (Bioorg Med Chem Lett, 2023):

Key:
[1] = Binding affinity to bovine liver beta-glucuronidase; set-up: species or system Bos taurus
Heparanase = molecular target: T1, Heparanase (Homo sapiens, UniProt Q9Y251); test: Inhibition of Heparanase-1 (unknown origin) by HTRF method
T1 sequence (Q9Y251 whole entry): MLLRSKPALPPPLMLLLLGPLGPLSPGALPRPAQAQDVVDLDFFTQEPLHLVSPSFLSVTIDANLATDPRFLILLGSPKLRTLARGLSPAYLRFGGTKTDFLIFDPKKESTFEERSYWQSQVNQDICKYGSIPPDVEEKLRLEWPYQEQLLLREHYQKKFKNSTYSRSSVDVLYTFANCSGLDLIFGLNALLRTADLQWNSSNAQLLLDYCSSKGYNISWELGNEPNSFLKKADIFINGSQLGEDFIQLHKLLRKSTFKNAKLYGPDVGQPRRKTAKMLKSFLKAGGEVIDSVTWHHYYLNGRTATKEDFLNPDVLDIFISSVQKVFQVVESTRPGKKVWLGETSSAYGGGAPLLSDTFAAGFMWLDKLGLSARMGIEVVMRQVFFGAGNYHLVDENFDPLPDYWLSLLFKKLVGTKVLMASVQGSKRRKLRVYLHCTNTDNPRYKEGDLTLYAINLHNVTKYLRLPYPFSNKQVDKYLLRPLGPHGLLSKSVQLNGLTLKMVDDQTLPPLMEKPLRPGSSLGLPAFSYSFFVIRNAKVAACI

`O=C(O)[C@@H]1[C@@H](O)[C@H](O)[C@@H](O)c2nccn21` showed a Ki [1] of 12 nM.

`CCCCCCCCCCCCCCCc1cc(O[C@@H]2O[C@H](C(=O)O)[C@@H](O)[C@H](O)[C@H]2O)cc(O)c1C(=O)Oc1cc(C)c(C(=O)O)c(O)c1` showed an IC50 (Heparanase) of 9.19 µM.

Work on `O=C(O)[C@@H]1[C@@H](O)[C@H](O)[C@@H](O)c2nc(CCc3ccc(C(F)(F)F)cc3)cn21` yielded an IC50 (Heparanase) of 3.41 µM.
